Data: PMC9990178 (Cell Chemical Biology, 2023)

Legend:
[1] = system: pulmonary fibrosis induced by N protein of the Omicron variant; assay type: in vivo; details: mice, AAV encoding Omicron N protein
[2] = system: Smad3 phosphorylation, α-SMA, COL1A1; assay type: cell-based, mouse; details: Alpha, Beta, Gamma, Delta, Omicron N protein; 20 μM, 36 h

O=c1c(O)c(N2CCN(Cc3ccc(Br)cc3F)CC2)oc2ccccc12 [RMY-205, 2-(4-(4-bromo-2-fluorobenzyl)piperazin-1-yl)-3-hydroxy-4H-chromen-4-one]
pro-fibrotic effects of N protein of the Omicron variant [1]: effectively suppressed
Smad3 phosphorylation induced by N protein variants [2]: abolished
α-SMA and COL1A1 expression induced by N protein variants [2]: suppression
